This is an account of results in ChEMBL document CHEMBL5465560, “Selectivity Literature for EUbOPEN Chemogenomic Library” (2024).

Assay [1] has as its target Cyclin-dependent kinase 9 (Homo sapiens, UniProt P50750). The assay is described as follows: Selectivity interaction (LanthaScreen Eu Kinase Binding Assay) EUB0001632a CDK9. Conditions: at 10 µM. For orientation: Time-resolved FRET reads energy transfer from a long-lived donor to a nearby acceptor.
The target of assay [2] is T1, Mitogen-activated protein kinase kinase kinase kinase 3 (Homo sapiens) (UniProt Q8IVH8).
T1 sequence (whole entry): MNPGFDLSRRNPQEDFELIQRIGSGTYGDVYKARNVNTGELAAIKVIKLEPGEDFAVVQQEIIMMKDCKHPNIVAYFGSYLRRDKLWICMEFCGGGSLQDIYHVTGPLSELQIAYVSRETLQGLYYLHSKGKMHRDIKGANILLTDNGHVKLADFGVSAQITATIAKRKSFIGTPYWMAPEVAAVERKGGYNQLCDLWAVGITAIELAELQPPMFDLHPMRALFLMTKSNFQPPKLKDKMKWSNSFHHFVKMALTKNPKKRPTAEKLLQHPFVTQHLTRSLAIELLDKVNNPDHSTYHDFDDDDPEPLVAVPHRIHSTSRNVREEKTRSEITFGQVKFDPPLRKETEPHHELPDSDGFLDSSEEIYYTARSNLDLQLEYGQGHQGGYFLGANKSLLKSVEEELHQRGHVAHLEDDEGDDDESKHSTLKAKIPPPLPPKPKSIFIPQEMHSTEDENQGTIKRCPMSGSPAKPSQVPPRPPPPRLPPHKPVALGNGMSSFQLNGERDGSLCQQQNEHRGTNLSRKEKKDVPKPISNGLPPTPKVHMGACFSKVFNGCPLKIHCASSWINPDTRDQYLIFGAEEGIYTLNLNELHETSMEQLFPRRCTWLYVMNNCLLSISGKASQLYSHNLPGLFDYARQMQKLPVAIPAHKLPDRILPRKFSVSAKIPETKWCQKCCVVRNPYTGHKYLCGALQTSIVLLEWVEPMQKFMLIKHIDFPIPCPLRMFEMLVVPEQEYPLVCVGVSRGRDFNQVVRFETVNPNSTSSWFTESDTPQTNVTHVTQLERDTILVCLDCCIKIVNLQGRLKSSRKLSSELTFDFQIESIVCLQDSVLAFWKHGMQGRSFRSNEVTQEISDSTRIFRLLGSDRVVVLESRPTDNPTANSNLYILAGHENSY
The assay is described as follows: Selectivity interaction (KinomeScan (DiscoverX)) EUB0000607a MAP4K3. Conditions: at 10 µM.

Assay [3] deals with Fibroblast growth factor receptor 1 (Homo sapiens, UniProt P11362). As to the kind of experiment: Selectivity interaction (Kinase panel (DSF assay)) EUB0001558a FGFR1.
Assay [4] deals with T2, Serine/threonine-protein kinase Sgk3 (Homo sapiens) (UniProt Q96BR1).
T2 sequence (whole entry): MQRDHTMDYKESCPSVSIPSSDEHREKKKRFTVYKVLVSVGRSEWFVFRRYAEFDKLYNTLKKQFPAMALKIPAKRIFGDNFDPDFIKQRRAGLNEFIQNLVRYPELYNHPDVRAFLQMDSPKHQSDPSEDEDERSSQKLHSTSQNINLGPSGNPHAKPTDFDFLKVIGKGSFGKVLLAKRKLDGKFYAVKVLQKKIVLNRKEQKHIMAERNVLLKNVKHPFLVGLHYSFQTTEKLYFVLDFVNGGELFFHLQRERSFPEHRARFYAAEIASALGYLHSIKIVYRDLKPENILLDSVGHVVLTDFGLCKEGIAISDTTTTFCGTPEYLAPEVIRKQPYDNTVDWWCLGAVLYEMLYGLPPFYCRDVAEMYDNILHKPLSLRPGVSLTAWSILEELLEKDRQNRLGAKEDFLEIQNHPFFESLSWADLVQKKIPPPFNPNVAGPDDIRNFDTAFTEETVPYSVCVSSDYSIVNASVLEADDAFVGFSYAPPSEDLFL
As to the kind of experiment: Selectivity interaction (KinomeScan (DiscoverX)) EUB0000655a SGK3. Conditions: at 10 µM.

Assay [5] relates to Epidermal growth factor receptor (Homo sapiens), P00533 [UNDEFINED MUTATION]. The assay is described as follows: Selectivity interaction (KinomeScan (DiscoverX)) EUB0001079a EGFR. As to conditions: at 1 µM.
In assay [6] the target is Tyrosine-protein kinase SYK (Homo sapiens, UniProt P43405). The assay is described as follows: Selectivity interaction (ActivX KiNativ screen (ex vivo kinase selectivity in human PBMCs)) EUB0001619a SYK. Conditions: PBMC, at 1 µM. It counts as cell-based.
The target of a further assay is Aurora kinase B (Homo sapiens, UniProt Q96GD4). As to the kind of experiment: Selectivity interaction (KinomeScan (DiscoverX)) EUB0001619a AURKB. Conditions: at 1 µM.
For assay [7], the target named is Serine/threonine-protein kinase Chk2 (Homo sapiens) (UniProt O96017). The assay is described as follows: Selectivity interaction (Kinase panel (literature)) EUB0001199aCl CHEK2. As to conditions: at 1 µM.
For assay [8], the target named is T3, Mitogen-activated protein kinase kinase kinase 2 (Homo sapiens) (UniProt Q9Y2U5).
T3 sequence (whole entry): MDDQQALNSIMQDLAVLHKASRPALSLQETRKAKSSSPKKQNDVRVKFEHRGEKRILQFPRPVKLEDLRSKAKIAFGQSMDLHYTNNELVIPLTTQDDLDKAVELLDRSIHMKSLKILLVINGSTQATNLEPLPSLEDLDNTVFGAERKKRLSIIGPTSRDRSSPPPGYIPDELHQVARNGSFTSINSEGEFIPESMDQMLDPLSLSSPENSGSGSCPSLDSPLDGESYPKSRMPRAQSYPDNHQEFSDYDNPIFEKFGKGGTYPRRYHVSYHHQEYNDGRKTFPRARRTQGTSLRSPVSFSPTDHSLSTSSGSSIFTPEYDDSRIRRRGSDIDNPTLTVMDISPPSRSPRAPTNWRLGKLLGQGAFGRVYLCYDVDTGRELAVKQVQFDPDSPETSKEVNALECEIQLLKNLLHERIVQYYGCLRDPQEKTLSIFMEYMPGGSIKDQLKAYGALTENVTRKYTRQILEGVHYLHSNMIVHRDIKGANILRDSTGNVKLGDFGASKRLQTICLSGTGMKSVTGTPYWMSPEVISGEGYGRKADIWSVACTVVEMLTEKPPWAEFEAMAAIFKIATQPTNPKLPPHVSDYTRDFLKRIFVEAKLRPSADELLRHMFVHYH
The assay is described as follows: Selectivity interaction (ActivX KiNativ screen (kinase selectivity in THP-1 cell lysates)) EUB0000639a MAP3K2. As to conditions: lysate, at 0.01 µM. The class given is subcellular.

Assay [9] concerns the target Serine/threonine-protein kinase PLK1 (Homo sapiens, UniProt P53350). The assay is described as follows: Selectivity interaction (ActivX KiNativ screen (kinase selectivity in THP-1 cell lysates)) EUB0000639a PLK1. The class given is subcellular. As to conditions: lysate, at 5 µM.
Assay [10] deals with Proto-oncogene tyrosine-protein kinase receptor Ret (Homo sapiens, UniProt P07949). As to the kind of experiment: Selectivity interaction (Kinase screening (Nanosyn)) EUB0000604a RET.
Sequence of Proto-oncogene tyrosine-protein kinase receptor Ret (P07949 whole entry): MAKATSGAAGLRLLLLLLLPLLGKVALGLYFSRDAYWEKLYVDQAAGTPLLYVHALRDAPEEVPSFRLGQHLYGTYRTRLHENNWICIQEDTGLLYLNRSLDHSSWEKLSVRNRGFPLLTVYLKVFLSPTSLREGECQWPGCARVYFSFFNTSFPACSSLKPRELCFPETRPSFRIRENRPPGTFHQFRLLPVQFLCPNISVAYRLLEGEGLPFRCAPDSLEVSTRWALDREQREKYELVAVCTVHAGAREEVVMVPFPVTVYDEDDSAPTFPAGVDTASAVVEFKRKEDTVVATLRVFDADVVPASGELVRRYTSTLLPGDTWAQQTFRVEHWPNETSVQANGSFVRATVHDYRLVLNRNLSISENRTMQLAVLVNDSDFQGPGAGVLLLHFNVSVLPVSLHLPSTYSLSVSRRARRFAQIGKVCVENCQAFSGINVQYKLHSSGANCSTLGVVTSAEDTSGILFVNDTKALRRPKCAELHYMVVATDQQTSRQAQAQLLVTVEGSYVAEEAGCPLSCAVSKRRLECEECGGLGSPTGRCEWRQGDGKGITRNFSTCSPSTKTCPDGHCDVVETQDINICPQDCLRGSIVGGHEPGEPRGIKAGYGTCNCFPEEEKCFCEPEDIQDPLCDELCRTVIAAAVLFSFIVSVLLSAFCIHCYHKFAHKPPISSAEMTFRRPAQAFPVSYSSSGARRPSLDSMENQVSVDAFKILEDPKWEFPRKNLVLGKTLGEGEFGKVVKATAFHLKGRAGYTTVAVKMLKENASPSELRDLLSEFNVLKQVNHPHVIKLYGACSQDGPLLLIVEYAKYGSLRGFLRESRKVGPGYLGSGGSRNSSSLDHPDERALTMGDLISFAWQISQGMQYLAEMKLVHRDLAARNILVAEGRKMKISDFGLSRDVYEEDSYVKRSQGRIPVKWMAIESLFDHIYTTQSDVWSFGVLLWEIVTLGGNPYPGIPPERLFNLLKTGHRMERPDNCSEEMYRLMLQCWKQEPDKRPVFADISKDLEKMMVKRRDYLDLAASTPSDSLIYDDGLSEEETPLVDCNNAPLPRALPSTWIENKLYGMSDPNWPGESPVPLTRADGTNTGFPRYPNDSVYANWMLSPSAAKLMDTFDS

Sequence of Cyclin-dependent kinase 9 (P50750 whole entry): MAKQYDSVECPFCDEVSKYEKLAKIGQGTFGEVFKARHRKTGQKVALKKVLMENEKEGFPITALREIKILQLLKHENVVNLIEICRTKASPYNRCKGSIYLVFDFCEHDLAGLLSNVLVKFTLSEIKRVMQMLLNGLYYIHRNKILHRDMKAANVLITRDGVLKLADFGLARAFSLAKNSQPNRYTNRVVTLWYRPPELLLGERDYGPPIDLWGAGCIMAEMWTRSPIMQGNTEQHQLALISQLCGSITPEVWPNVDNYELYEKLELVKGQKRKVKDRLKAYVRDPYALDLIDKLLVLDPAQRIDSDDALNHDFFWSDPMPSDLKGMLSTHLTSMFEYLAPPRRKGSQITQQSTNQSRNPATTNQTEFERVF
Sequence of Epidermal growth factor receptor (Homo sapiens), P00533 [UNDEFINED MUTATION] (P00533 whole entry, looked up, change not shown): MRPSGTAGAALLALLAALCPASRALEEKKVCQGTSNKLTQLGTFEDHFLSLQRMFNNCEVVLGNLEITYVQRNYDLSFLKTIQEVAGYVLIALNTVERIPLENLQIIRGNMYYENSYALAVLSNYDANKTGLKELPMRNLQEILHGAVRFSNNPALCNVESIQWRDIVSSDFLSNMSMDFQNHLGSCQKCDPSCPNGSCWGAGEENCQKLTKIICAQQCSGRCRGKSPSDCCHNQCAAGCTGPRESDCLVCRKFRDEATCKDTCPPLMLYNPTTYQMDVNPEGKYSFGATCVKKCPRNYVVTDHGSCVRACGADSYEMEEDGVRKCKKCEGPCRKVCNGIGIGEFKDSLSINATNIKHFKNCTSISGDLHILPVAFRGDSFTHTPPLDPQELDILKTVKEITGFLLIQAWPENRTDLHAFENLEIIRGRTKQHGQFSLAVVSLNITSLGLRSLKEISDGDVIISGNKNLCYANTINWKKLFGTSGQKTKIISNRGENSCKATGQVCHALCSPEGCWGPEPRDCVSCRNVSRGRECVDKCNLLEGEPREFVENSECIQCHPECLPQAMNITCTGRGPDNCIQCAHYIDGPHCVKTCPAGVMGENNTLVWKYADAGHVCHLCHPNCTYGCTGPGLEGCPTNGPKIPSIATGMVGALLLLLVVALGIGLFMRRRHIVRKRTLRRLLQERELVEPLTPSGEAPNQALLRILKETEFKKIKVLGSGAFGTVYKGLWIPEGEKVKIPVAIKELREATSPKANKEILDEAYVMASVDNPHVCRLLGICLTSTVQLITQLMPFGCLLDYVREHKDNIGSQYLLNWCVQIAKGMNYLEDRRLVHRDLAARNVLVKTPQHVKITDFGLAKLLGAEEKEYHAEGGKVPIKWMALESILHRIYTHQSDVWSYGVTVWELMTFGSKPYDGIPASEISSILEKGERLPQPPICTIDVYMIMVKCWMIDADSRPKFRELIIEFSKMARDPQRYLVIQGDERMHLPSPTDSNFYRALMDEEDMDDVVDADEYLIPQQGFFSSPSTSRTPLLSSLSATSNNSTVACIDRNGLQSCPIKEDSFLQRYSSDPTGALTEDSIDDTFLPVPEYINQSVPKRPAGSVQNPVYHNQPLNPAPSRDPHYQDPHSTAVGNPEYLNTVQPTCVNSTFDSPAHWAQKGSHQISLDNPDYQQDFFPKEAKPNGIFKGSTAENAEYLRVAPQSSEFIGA
Sequence of Serine/threonine-protein kinase Chk2 (Homo sapiens) (O96017 whole entry): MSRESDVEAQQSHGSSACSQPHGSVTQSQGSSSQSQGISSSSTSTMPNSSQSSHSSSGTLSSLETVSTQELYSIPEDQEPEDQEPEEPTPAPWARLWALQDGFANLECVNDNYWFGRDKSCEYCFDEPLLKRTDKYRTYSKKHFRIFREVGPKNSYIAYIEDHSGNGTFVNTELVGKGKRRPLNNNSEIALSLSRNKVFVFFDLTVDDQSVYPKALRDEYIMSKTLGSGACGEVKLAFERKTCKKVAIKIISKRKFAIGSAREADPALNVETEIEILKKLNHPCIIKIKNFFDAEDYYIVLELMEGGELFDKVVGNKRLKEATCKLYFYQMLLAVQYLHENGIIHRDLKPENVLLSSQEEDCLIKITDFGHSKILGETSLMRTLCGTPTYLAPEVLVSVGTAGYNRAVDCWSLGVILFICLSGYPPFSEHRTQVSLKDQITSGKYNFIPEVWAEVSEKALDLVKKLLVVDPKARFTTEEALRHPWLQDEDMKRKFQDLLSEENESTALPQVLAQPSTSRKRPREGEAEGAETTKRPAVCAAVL
Sequence of Fibroblast growth factor receptor 1 (P11362 22-822 limits assumed): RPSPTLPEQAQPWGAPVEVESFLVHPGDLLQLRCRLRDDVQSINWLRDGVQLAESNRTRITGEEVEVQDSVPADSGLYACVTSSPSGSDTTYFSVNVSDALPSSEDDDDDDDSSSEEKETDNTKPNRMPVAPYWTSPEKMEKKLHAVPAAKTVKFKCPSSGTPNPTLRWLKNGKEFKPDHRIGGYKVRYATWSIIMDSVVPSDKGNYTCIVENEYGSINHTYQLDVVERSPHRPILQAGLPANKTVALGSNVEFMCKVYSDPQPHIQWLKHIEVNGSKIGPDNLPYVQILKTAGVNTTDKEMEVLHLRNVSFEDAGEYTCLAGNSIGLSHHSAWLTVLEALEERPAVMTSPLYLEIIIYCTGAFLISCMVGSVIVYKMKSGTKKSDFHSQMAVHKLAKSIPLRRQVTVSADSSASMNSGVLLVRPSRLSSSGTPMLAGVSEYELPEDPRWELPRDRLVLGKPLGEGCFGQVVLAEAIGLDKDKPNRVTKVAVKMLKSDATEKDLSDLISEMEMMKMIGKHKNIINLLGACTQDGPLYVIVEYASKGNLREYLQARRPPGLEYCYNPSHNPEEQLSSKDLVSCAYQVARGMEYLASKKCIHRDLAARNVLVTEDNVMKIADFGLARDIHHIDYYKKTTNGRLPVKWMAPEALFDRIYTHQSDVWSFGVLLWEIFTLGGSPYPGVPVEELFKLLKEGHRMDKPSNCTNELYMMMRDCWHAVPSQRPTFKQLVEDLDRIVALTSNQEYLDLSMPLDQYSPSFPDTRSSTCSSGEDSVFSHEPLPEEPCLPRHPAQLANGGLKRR
Sequence of Serine/threonine-protein kinase PLK1 (P53350 whole entry): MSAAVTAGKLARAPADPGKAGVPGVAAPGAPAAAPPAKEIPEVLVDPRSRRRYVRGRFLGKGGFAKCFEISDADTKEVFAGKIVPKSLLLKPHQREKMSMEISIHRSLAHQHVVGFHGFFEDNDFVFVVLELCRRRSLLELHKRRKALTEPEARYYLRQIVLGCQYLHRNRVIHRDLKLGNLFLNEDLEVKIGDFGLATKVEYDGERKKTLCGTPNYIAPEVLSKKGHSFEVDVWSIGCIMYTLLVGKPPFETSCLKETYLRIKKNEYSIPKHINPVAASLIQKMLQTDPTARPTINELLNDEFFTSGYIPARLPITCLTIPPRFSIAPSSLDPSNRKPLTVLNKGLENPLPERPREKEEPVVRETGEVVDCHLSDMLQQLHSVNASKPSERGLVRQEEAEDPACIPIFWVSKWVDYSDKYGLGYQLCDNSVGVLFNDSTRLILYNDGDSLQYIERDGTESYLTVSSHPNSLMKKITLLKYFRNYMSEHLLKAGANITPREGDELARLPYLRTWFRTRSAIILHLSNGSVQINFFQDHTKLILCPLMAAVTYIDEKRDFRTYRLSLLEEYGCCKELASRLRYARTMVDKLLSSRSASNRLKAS
Sequence of Aurora kinase B (Q96GD4 whole entry): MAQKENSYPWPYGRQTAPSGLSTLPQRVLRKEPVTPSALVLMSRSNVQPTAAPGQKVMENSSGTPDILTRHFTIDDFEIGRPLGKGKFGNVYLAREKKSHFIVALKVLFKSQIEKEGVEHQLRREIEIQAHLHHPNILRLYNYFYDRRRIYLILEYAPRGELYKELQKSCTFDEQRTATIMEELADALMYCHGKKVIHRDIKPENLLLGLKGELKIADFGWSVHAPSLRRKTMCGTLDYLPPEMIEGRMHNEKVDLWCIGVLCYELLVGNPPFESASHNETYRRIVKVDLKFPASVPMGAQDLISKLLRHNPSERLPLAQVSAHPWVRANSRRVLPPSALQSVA

As for `Cn1cc(-n2cnc3c(NCc4nc5cc(Cl)c(Cl)cc5[nH]4)nc(N4CCOCC4)nc32)cn1`, the % of inhibition in assay [1] was -166%. Compound `CNC(=O)Nc1ccc(-c2nc(N3CC4CCC(C3)O4)c3cnn(C4CCC5(CC4)OCCO5)c3n2)cc1` yielded a % of control in assay [2] of 94%. `CC(C)(O)[C@H](F)CN1Cc2cc(NC(=O)c3cnn4cccnc34)c(N3CCOCC3)cc2C1=O` yielded a dTM in assay [3] of 1.1 K. For the compound `CN(C)CCOc1ccc(-c2nc(-c3ccncc3)c(-c3ccc4c(c3)CC/C4=N\O)[nH]2)cc1`, in assay [4], the % of control was determined as 88%. In assay [5], `Nc1cnc(N2CCc3cc(S(=O)(=O)Nc4c(F)cc(Cl)cc4F)cc(N4CCCC4=O)c32)nc1` [TP-020n] returned a % of control of 63%. As for `N#Cc1cccc(-c2c[nH]c3ncnc(N4CCOCC4)c23)c1`, the % of inhibition in [6] turned out to be 0%. This compound yielded a % of control on Aurora kinase B of 26%. As to `CN1Cc2nccc(-c3cn(C)nc3-c3ccc(F)cc3)c2C1=O`, in assay [7], the % of inhibition came out at 0%.

With `CC[C@@H]1[C@H](F)C(=O)N[C@@H]1COc1nccc2cc(C(N)=O)c(OC)cc12` [ZIMLOVISERTIB], the % of inhibition in assay [8] turned out to be 8.7%; in assay [9], 12.2%. `Cc1cnc(Nc2ccc(F)cc2Cl)nc1-c1c[nH]c(C(=O)N[C@H](CO)c2cccc(Cl)c2)c1`: the % of inhibition in assay [10] was found to be 3%.
